{"source": "patent US20110195924A1", "about": "“Methods of Inhibiting the Interaction Between S100P and the Receptor for Advanced Glycation End-Products” (priority 2008, published 2011)", "key": {"NFkB activity": {"test_system": "NFkB activity", "assay": "S100P induced NFkB activity in cancer cells (analogs)", "format": "cell-based", "method": "(§1) Various cromolyn-based analogs were developed. The effects of the analogs on binding of S100P with RAGE were evaluated for the analogs using a sandwich ELISA. The effectiveness of the analogs to block cancer cell proliferatin and increase apoptosis in vitro were analyzed with and without cisplatin, 5-flurouracil and gemcitabine by MTS and FACS analysis. We also examined the ability of the analogs to inhibit S100P activation of NFkB signaling in cancer cells in vitro and in vivo. Finally, the effects of the novel analogs on tumor growth in vivo was evaluated."}, "S100P binding with RAGE": {"biological_target": "T1, S100P binding with RAGE (Homo sapiens, UniProt P25815)", "T1 construct": "full-length human S100P cDNA (NM_005980) was cloned into the pTrcHis2 vector; His; made in house; host or cells: bacteria (S100P)", "T1 sequence (P25815 1-95)": "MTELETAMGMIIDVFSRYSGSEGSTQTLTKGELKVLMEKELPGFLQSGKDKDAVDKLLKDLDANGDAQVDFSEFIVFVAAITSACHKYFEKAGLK", "assay": "ELISA of S100P binding to RAGE (sRAGE coated plate)", "settings": "analogs at 10-fold lower concentration than cromolyn", "method": "After removing un-bound S100P by washing with detergent, the bound S100P and RAGE complex was quantified by adding HRP labeled antibody against S100P. *, P=0.04 C5 1 μM versus cromolyn 5 μM. Two-tailed two-sample (unpaired) Student's t-tests were used to determine P values.\nThe plate was washed and the amount of bound S100P was quantitated using anti-S100P antibody.\nThe binding of S100P to RAGE was determined using an ELISA assay. sRAGE was attached to the dish and recombinant S100P (50 ng) was added with or without the indicated concentrations of cromolyn analogs. The plate was washed and the amount of bound S100P was quantitated using anti-S100P antibody."}, "MPanc96 tumors": {"test_system": "MPanc96 tumors", "assay": "MPanc96 pancreatic tumor growth and survival in mice (analogs)", "format": "in vivo", "method": "as §1, with “evaluated. One analog, C5OH is shown below:” for “evaluated.”\nAnimals were implanted with MPanc96 cells, a gemcitabine resistant model of pancreatic cancer, and then treated with gemcitabine, C5OH, or the combination. […] Noteworthy, the addition of the hydroxyl group to the carbon chain in C5 allows easy modifications of this molecule. The hydroxyl can be substituted with fluoride that can be labeled for in vivo PET imaging. This hydroxyl can also be used to develop a pro-drug form of C5 by attaching other components with an ester bond."}, "pancreatic cancer cells": {"test_system": "pancreatic cancer cells", "assay": "Apoptosis of pancreatic cancer cells with cromolyn analogs and cytotoxic drugs", "format": "cell-based", "method": "as §1, with “evaluated. One analog, C5OH is shown below:” for “evaluated.”\nIn this in vitro study, pancreatic cancer cells were treated with gemcitabine alone or in the presence of cromolyn analogs. The cromolyn analogs themselves have very little effect on the rates of cellular apoptosis, supporting their absence of general toxicity. However, all cromolyn analogs increased the killing of pancreatic cancer cells by gemcitabine."}, "Panc-1 cells [1]": {"test_system": "Panc-1 cells", "assay": "Panc-1 cell proliferation (MTS)", "format": "cell-based", "settings": "Panc-1", "method": "Panc-1 pancreatic adenocarcinoma cells (1.0×10^3 cells/well) were cultured in the presence or absence of S100P (100 nM) and with or without cromolyn (100 μM), and cell proliferation was analyzed at 24, 48, and 72 hours. Means and 95% confidence intervals of three independent experiments performed in triplicate are shown. *, P=0.001, S100P alone versus S100P+cromolyn.\nPanc-1 cells were plated at 1.0×10^3 cells/well and treated with platelet-derived growth factor (10 ng/mL) with or without cromolyn (100 μM), and cell proliferation was analyzed after 48 hours. Means and 95% confidence intervals of three independent experiments performed in triplicate are shown. *, P=0.004 PDGF and P=0.022 cromolyn+PDGF versus control.\nGrowth of Panc-1 and BxPC3 pancreatic adenocarcinoma cells was analyzed using MTS reagent (Promega, Madison, Wis.) according to the manufacturer's directions. Purified S100P (100 nM final concentration) with or without cromolyn (100 μM final concentration) was added to Panc-1 cells. Only cromolyn (0-100 μM) was added to BxPC-3 cells, which express endogenous S100P. For both cell models, 1.0×10^3 cells/well were plated in 96-well culture dishes. Cells were treated with S100P, PDGF, or cromolyn, or a combination, followed immediately by treatment with either S100P or PDGF. MTS (20 μL per well) was added to cells at various times, and the mixture was incubated for 1 hour at 37° C. Samples were then read at 490 nm (as O.D. units) on a uQuant-Microplate Spectrophotometer (Bio-Tek Services Inc., Richmond, Va.). The assay was performed three times in triplicate."}, "Panc-1 cells [2]": {"test_system": "Panc-1 cells", "assay": "Panc-1 matrigel invasion assay", "format": "cell-based", "settings": "Panc-1; S100P 100 nM alone, 24 hours", "method": "FIGS. 2A-2D show the effect of cromolyn on pancreatic cancer cell invasion. Panc-1 and BxPC-3 cells were plated in Bio-coat matrigel and control chambers and cultured in serum-free culture media. After 24 hours non-invaded cells in the upper chamber were removed, and cells that invaded onto the lower surface of the membrane were counted from five adjacent fields. […] Data are expressed as the percent invasion through the matrigel matrix and membrane relative to migration through the control membrane. Means and 95% confidence intervals from three independent experiments performed in triplicate are shown. Two-tailed two-sample (unpaired) Student's t-tests were used to determine P values.\nPanc-1 and BxPC-3 cells were seeded in BIOCOAT matrigel invasion chambers and in control chambers without matrigel (Becton-Dickinson, Bedford, Mass.) according to the manufacturer's protocol. Panc-1 cells were seeded with S100P (100 nM) with or without cromolyn (100 μM), and BxPC-3 cells were seeded with or without cromolyn (1-100 μM). Briefly, 2.0×10^5 cells in 300 μL top solution (serum-free media) were added to each chamber and allowed to invade matrigel for 24 hours at 37° C. in a 5% CO2 atmosphere. The non-invading cells on the upper surface of membrane were removed from the chambers with a cotton swab, and the invading cells on the lower surface of the membrane were fixed and stained using a Diff-Quick stain kit (Becton Dickinson, Bedford, Mass.). After two washes with water, the chambers were allowed to air dry. The numbers of invading cells in five adjacent microscope fields per membrane were counted at 20× magnification to obtain the average number of cells per field. Data are expressed as the percent invasion through the matrigel matrix and membrane relative to the migration through the control membrane. The assays were performed three times."}, "NFκB promoter activity": {"test_system": "NFκB promoter activity", "assay": "NFκB luciferase reporter assay in Panc-1 cells", "format": "cell-based", "settings": "5 hours", "method": "FIGS. 3A, 3B, and 3C show the effect of cromolyn on S100P stimulated NFκB promoter activity in pancreatic cancer cells in vitro and in vivo. Panc-1 and BxPC-3 pancreatic cancer cell lines stably expressing an NFκB luciferase reporter were examined for the effects of S100P and cromolyn. […] Means and 95% confidence intervals are shown for three independent experiments performed in triplicate. *, P=0.022, †, P<0.001, and P<0.001 versus control; #, P=0.005 versus 100 nM S100P alone. […] Means and 95% confidence intervals are shown for three independent experiments performed in triplicate. *, P=0.003, †, P<0.001 versus control. […] After 1 week, tumor growth was assessed and NFκB activity was analyzed using an IVIS system (Xenogen Corp., Alameda, Calif.) after injecting mice with D-luciferin (150 mg per kg body weight) (0 time point). The mice were treated with cromolyn (5 mg per kg body weight by intraperitoneal injection), and NFκB luciferase activity was analyzed again at 24 and 48 hours. *, P=0.005 versus control. Means and 95% confidence intervals are shown for two independent experiments (n=4 mice per group). Two-tailed two-sample (unpaired for in vitro and paired for in vivo studies) Student's t-tests were used to determine P values.\nTo study pancreatic cancer cell NFκB activity, a lentivirus NFκB luciferase reporter gene construct was developed. The NFκB luciferase reporter gene was excised and isolated from the pNF-κB-Luc Vector (Clonetec, Mountain View, Calif.) and cloned into the lentiviral vector FG9 (Gift from Dr. Xiao-Feng Qin, Dept. of Immunology, M.D. Anderson Cancer Center replacing the CMV/LTR and UBiC promoters, to form Lenti-NFκB-Luc. Lentiviral NFκB vector were co-transfected with packaging constructs pRSVREV, pMDLg/pRRE, and the VSV-G expression plasmid pHCMVG, and lentivirus was produced in 293T cells by the calcium transfection method, as previously described in Qin, et al., Inhibiting HIV-1 infection in human T cells by lentiviral-mediated delivery of small interfering RNA against CCR5; Proc. Natl. Acad. Sci. U.S.A. 2003 Jan. 7; 100(1):183-8. […] Functional validation of NFκB reporter activity was conducted in vitro using TNF-α (20 ng/mL, Sigma, St. Louis, Mo.) as a positive control.\nBxPC-3 and Panc-1 cells stably expressing a Lenti-NFkB-luc reporter construct were treated with S100P, cromolyn, or the combination for 5 hours. D-luciferin (150 μg/mL) was added to the cells, and luciferase activity was measured using an IVIS bioluminescence system (Xenogen Co. Alameda, Calif.). Each experiment was conducted three times in triplicate."}, "[3]": {"settings": "MPanc96, gemcitabine resistant model, to a greater extent than gemcitabine"}}, "note": "“Also recorded” adds a separate entry of the source.", "data": [{"molecule": "O=C([O-])c1cc(=O)c2c(OCCC(O)CCOc3cccc4oc(C(=O)[O-])cc(=O)c34)cccc2o1.[Na+].[Na+]", "note": "[C5OH]", "values": [{"measurement": "inhibition of S100P induced NFkB activity relative to cromolyn", "setting": "NFkB activity", "result": "more potently and effectively than did cromolyn"}, {"measurement": "potency in blocking S100P binding to RAGE relative to cromolyn or C5", "setting": "S100P binding with RAGE", "result": "nearly equally potent and more efficient than cromolyn; also recorded: at least as effective as the C5-analog"}, {"measurement": "survival of mice with pancreatic tumors", "setting": "MPanc96 tumors; [3]", "result": "prolongs survival"}, {"measurement": "tumor growth", "setting": "MPanc96 tumors; [3]", "result": "reduces tumor growth"}, {"measurement": "effects relative to gemcitabine", "setting": "MPanc96 tumors; MPanc96 model", "result": "superior to those of gemcitabine"}, {"measurement": "inhibition of tumor growth and survival in vivo, relative to cromolyn", "setting": "MPanc96 tumors; mouse, in vivo", "result": "superior to cromolyn"}, {"measurement": "cancer cell apoptosis in response to various cytoxic treatments, relative to cromolyn", "setting": "pancreatic cancer cells", "result": "at lesser concentrations and to a greater extent than did cromolyn"}, {"measurement": "killing of pancreatic cancer cells by gemcitabine", "setting": "pancreatic cancer cells; with gemcitabine, C5 and C5OH at 10-fold lower concentration than cromolyn", "result": "worked equally well"}]}, {"molecule": "PDGF", "values": [{"measurement": "cell proliferation, difference versus control", "setting": "Panc-1 cells [1]; PDGF 10 ng/mL, 48 hours", "result": 0.2, "unit": "MTS units"}, {"measurement": "cell proliferation, mean", "setting": "Panc-1 cells [1]; PDGF 10 ng/mL, 48 hours, control mean 0.5", "result": 0.7, "unit": "MTS units"}]}, {"molecule": "S100P: purified His-tagged full-length human S100P protein, 95-amino acid member of the S100 family (protein, UniProt P25815 1-95, looked up, His tag, purified His-tagged full-length human S100P protein, 95-amino acid member of the S100 family) Protein S100-P: MTELETAMGMIIDVFSRYSGSEGSTQTLTKGELKVLMEKELPGFLQSGKDKDAVDKLLKDLDANGDAQVDFSEFIVFVAAITSACHKYFEKAGLK", "values": [{"measurement": "cell proliferation, mean", "setting": "Panc-1 cells [1]; S100P 100 nM alone", "result": 0.93, "unit": "MTS units"}, {"measurement": "cells invaded, mean", "setting": "Panc-1 cells [2]", "result": 58.0, "unit": "%"}, {"measurement": "NFκB promoter activity, difference versus 0 nM", "setting": "NFκB promoter activity; S100P 1 nM", "result": 3544, "unit": "photons/sec"}, {"measurement": "NFκB promoter activity, mean", "setting": "NFκB promoter activity; S100P 1 nM, 0 nM mean 3358", "result": 6902, "unit": "photons/sec"}, {"measurement": "NFκB promoter activity, difference versus 0 nM", "setting": "NFκB promoter activity; S100P 10 nM", "result": 5400, "unit": "photons/sec"}, {"measurement": "NFκB promoter activity, mean", "setting": "NFκB promoter activity; S100P 10 nM", "result": 8758, "unit": "photons/sec"}, {"measurement": "NFκB promoter activity, difference versus 0 nM", "setting": "NFκB promoter activity; S100P 100 nM", "result": 11100, "unit": "photons/sec"}, {"measurement": "NFκB promoter activity, mean", "setting": "NFκB promoter activity; S100P 100 nM", "result": 14460, "unit": "photons/sec"}]}]}
